Data: US11259516B2, “Method and apparatus for capsular delivery to plants” (priority 2017, dated 2022)

How the values were obtained:
[1] = tested on: Harungana madagarcariensis (Harungana); parameters: key: X indicates that the given herbicide is suitable for controlling the given weed; details: cited from earlier work
Lantana camara (Lantana) = tested on: Lantana camara (Lantana); parameters: key: X indicates that the given herbicide is suitable for controlling the given weed; details: cited from earlier work
[2] = tested on: Miconia calvescens (Velvet tree); parameters: key: X indicates that the given herbicide is suitable for controlling the given weed; details: cited from earlier work
[3] = tested on: Ricinus communis (Castor oil plant); parameters: key: X indicates that the given herbicide is suitable for controlling the given weed; details: in vivo; cited from earlier work
[4] = tested on: Erythrina sykesii (Coral tree); parameters: key: X indicates that the given herbicide is suitable for controlling the given weed; details: cited from earlier work
[5] = tested on: Cascabela thevetia (Yellow oleander); parameters: key: X indicates that the given herbicide is suitable for controlling the given weed; details: cited from earlier work
[6] = tested on: Eucalyptus saligna (Sydney Blue Gum); test: Case 2: thinning of plantation grown Eucalyptus saligna with Di-Bak G, field trial; assay type: in vivo; details: at four months, on average a capsule every 13-14 cm of stem circumference
Description: Generally, one capsule was inserted per 10 cm stem circumference.
Tree health was assessed on a 0-4 scale, 0 being dead and 4 being healthy. Observations were made for evidence of ‘flashback’ in nearby untreated trees.
A trial was established on Brooklyn Station, Upper Tooloom, near Urbenville on 25 May 2017. GPS co-ordinates of the first treated plot were S28° 32.486′ E152° 24.782′. […] Trees were 6-10 m tall. Desirable trees were marked and the other trees were treated.
The trial consisted of four replicates with 15 trees per replicate. The number of capsules applied to each tree was dependent on tree circumference which was measured at chest height. The tree circumferences range was from 18 to 57 cm. Tree health was assessed at 4 months (25 Aug. 2017) and 7 months (20 Dec. 2017). Samples were collected for observation of dissolution of capsule and herbicide. Rainfall data for the closest recording station (Urbenville) was taken from the Bureau of Meteorology (BOM) internet site. No recent temperature data records were available for this site.

[7] = tested on: Erythrina crista-galli (Cockspur coral tree); parameters: key: X indicates that the given herbicide is suitable for controlling the given weed; details: cited from earlier work
[8] = tested on: Senegalia catechu (Cutch tree); parameters: key: X indicates that the given herbicide is suitable for controlling the given weed; details: cited from earlier work
[9] = tested on: Olea europea sbsp africana (African olive); parameters: key: X indicates that the given herbicide is suitable for controlling the given weed; details: cited from earlier work
[10] = tested on: Cinnamonum camphora (Camphor laurel); parameters: key: X indicates that the given herbicide is suitable for controlling the given weed; details: cited from earlier work
[11] = tested on: Tabebuia aurea (Tabebuia); parameters: key: X indicates that the given herbicide is suitable for controlling the given weed; details: cited from earlier work
[12] = tested on: western white gum (Eucalyptus argophloia); test: Example 2: glyphosate and hexazinone capsules, thinning trial in western white gum plantation; details: Eucalyptus argophloia
Description: The trial for this example was established at the HQP plantation near Jandowae on 6 Feb. 2018. The trees were planted in rows 4 m apart at 1.5 m spacing. Trees were 6-10 m tall. Trees to be maintained were marked and the other trees were treated.
Four treatments were used, with capsules as follows:
The capsules used were HPMC Size 0 Natural TR.V700 colour cap and body Vcaps (Suzhou Capsugel® Ltd, China). Capsules were hand packed using a Capsugel Profiller apparatus (https://www.capsugel.com/biopharmaceutical-products/profiller). An embodiment of apparatus 10 adapted to include handle 2201 (FIG. 17) was used to drill a hole into the stem, insert the herbicide capsule and seal with a wooden plug.
Herbicide capsules were applied to approximately 10 trees for each of the treatments. The number of capsules applied to each tree was independent of tree circumference which was measured at chest height. The tree circumferences range was from 20 to 34 centimetres. At 4 weeks, a small sample of trees were cut down with a chainsaw and cross-sections of stems containing the sites of insertion of the herbicide capsules removed. These stem pieces were returned to the laboratory and split open longitudinally through the insertion point. Tree health was assessed at 11 weeks (24 Apr. 2018) on a 0-4 scale with 0 being dead and 4 being healthy. Observations were made for evidence of flashback in untreated trees.

**Q.** What does the source list for `O=C(O)CNCP(=O)(O)O` [Glyphosate]?
**A.** suitability of herbicide for control of weed [1]: X; suitability of herbicide for control of weed (Lantana camara (Lantana)): X; suitability of herbicide for control of weed [2]: X; suitability of herbicide for control of weed [3]: X; suitability of herbicide for control of weed [4]: X; suitability of herbicide for control of weed [5]: X; mortality [6]: over 90%; suitability of herbicide for control of weed [7]: X; suitability of herbicide for control of weed [8]: X; suitability of herbicide for control of weed [9]: X; suitability of herbicide for control of weed [10]: X; suitability of herbicide for control of weed [11]: X; flashback in the trees marked for retention ([12]; 11 week assessment): no flashback was observed; trees died / killed (health rating 0-4 scale, 0 dead) ([12]; 11 weeks post treatment, 1 or 2 capsules per tree): majority of trees
